Patent publication US20070129411A1, “Treatment of proliferative diseases with epothilone derivatives and radiation” (priority 2003, published 2007)
“Also recorded” adds a separate entry of the source.

Key:
[1] = tested on: human colon adenocarcinoma cell line SW480; test: alamarBlue tumor cell proliferation assay, SW480; format: cell-based
Procedure: (§1) Tumor cell proliferation was assessed by the calorimetric MTT-like alamarBlue assay that is based on detection of metabolite activity. To determine clonogenic survival the number of singular cells plated was adjusted to obtain about 100 colonies per dish with a given treatment. After 24 h exposure to the different drugs cells were irradiated and then allowed to grow for 8 to 10 days before fixation In methanol/acetic acid (75%/25%) and staining with crystal violet. Only colonies with more than 50 cells/colony were counted. The plating efficiency (PE) of untreated cells was determined and calculated as PE (%)=(scored colonies/number of plated cells)×100. The surviving fraction (SF) with a given treatment was determined by SF=(scored colonies)/(number of plated cells×PE/100). […] Irradiation of cell cultures was carried out at RT in tissue culture dishes (100×100 mm) or in 96-well plates using a Pantak Therapax […] X-ray unit at 0.7 Gy/min. Dosimetry was controlled with a Vigilant-dosimeter.
(§2) Initial proliferation assays were performed to determine the dose range of epothilone B to be applied for combined treatment with ionizing radiation. […] For this combined treatment modality cells were pretreated for 24 h with epothilone B prior to irradiation.

[2] = tested on: E1A/ras transformed p53-/- MEF; format: cell-based, murine; details: for proliferative activity, drug alone / proliferative activity, drug in combination with ionizing radiation: murine fibrosarcoma cell line, low nanomolar range, comparable extent for both drugs
Procedure: as §1, §2

SW480 = test: clonogenic survival assay, SW480; format: cell-based, human
Procedure: (§3) Tumor cell proliferation was assessed by the calorimetric MTT-like alamarBlue assay that is based on detection of metabolite activity. To determine clonogenic survival the number of singular cells plated was adjusted to obtain about 100 colonies per dish with a given treatment. After 24 h exposure to the different drugs cells were irradiated and then allowed to grow for 8 to 10 days before fixation In methanol/acetic acid (75%/25%) and staining with crystal violet. Only colonies with more than 50 cells/colony were counted. The plating efficiency (PE) of untreated cells was determined and calculated as PE (%)=(scored colonies/number of plated cells)×100. The surviving fraction (SF) with a given treatment was determined by SF=(scored colonies)/(number of plated cells×PE/100). Clonogenic assays were performed at least twice and absence of error bars is due to minimal standard deviations. Irradiation of cell cultures was carried out at RT in tissue culture dishes (100×100 mm) or in 96-well plates using a Pantak Therapax […] X-ray unit at 0.7 Gy/min. Dosimetry was controlled with a Vigilant-dosimeter.
(§4) The clonogenic assay is based on the outgrowth of compact clones from singular cells that are seeded at low density in a petri dish. Clonal outgrowth under the different treatment conditions can be quantified and compared.

E1A/ras-transformed MEFs = test: clonogenic survival assay, E1A/ras-transformed MEF; format: cell-based, murine; details: 24 h drug exposure then irradiation
Procedure: as §3, §4

| SMILES | proliferation, response to drug ([1]; SW480, doses up to 500 nM) | proliferative activity, drug alone [2] | proliferative activity, drug in combination with ionizing radiation [2] | clonogenic survival, combined treatment with ionizing radiation (SW480; Paclitaxel-resistant SW480, only at very high concentrations of Paclitaxel) | clonogenic survival, combined treatment with ionizing radiation (E1A/ras-transformed MEFs) | antiproliferative effect of combined treatment with ionizing radiation ([1]; SW480, ionizing radiation 5Gy, 24 h drug pretreatment prior to irradiation) | antiproliferative dose response, drug alone ([1]; SW480, over 72 hours, without irradiation) | antiproliferative effect of combined treatment with ionizing radiation ([2]; E1A/ras transformed p53-/- MEF, ionizing radiation 5Gy, 24 h drug pretreatment prior to irradiation) | antiproliferative dose response, drug alone ([2]; E1A/ras transformed p53-/- MEF, over 72 hours, without irradiation) | clonogenic survival, combined treatment with ionizing radiation (SW480; SW480, 24 h drug exposure then irradiation) | clonogenic survival, sensitivity of SW480 relative to MEFs (SW480; SW480 compared with E1A/ras-transformed MEFs) |
| --- | --- | --- | --- | --- | --- | --- | --- | --- | --- | --- | --- |
| CC(=O)O[C@H]1C(=O)[C@@]2(C)[C@H]([C@H](OC(=O)c3ccccc3)[C@]3(O)C[C@H](OC(=O)[C@H](O)[C@@H](NC(=O)c4ccccc4)c4ccccc4)C(C)=C1C3(C)C)[C@]1(OC(C)=O)CO[C@@H]1C[C@@H]2O [Paclitaxel, reference compound] | refractory | reduced the proliferative activity | reduced the proliferative activity | at least additive effect | at least additive effect | – | – | – | – | – | – |
| C/C(=C\c1csc(C)n1)[C@@H]1C[C@@H]2O[C@]2(C)CCC[C@H](C)[C@H](O)[C@@H](C)C(=O)C(C)(C)[C@@H](O)CC(=O)O1 [epothilone B] | – | reduced the proliferative activity | reduced the proliferative activity | – | at least additive effect | at least additive antiproliferative effect; also recorded: retains full activity | subnanomolar and low nanomolar range; also recorded: enhanced sensitivity; also recorded: retains full activity | at least additive antiproliferative effect | subnanomolar and low nanomolar range | at least additive effect | more sensitive |
